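Cultured in 96-well plates, cells were exposed to test compound for 48 hours across five concentrations. GI50 is the concentration that inhibits growth by half.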 The source made the active and inactive calls. Cut-off read from the data, not from the text of the source: active = GI50 up to about 1.1 µM and inactive = higher.
Columns and labels:
Assay in all cases: NCI-60 cell line screen, 48 h
HOP-18 = test system: HOP-18
M19-MEL = test system: M19-MEL
LXFL 529 = test system: LXFL 529
DMS-114 = test system: DMS-114
XF498 = test system: XF498
DLD-1 = test system: DLD-1
RXF 631 = test system: RXF 631
DMS-273 = test system: DMS-273
KM-20L2 = test system: KM-20L2

| SMILES | GI50 (HOP-18) | GI50 (M19-MEL) | GI50 (LXFL 529) | GI50 (DMS-114) | GI50 (XF498) | GI50 (DLD-1) | GI50 (RXF 631) | GI50 (DMS-273) | GI50 (KM-20L2) |
| --- | --- | --- | --- | --- | --- | --- | --- | --- | --- |
| N#CC1(Cc2ccccc2)CCCCN1C(=O)c1ccccc1 (stereo not drawn) | > 100 µM (inactive) | > 100 µM (inactive) | > 100 µM (inactive) | > 100 µM (inactive) | > 100 µM (inactive) | > 100 µM (inactive) | > 100 µM (inactive) | > 100 µM (inactive) | > 100 µM (inactive) |
| CC1OC(n2cc(F)c(=O)[nH]c2=O)C=CC1=O (stereo not drawn) | 18.3 µM (inactive) | 19.7 µM (inactive) | 16.6 µM (inactive) | 18 µM (inactive) | – | 18.1 µM (inactive) | 53.8 µM (inactive) | 18.6 µM (inactive) | 18.4 µM (inactive) |
| C=CCCOC(=O)CO[N+](=O)[O-] | – | > 100 µM (inactive) | > 100 µM (inactive) | > 100 µM (inactive) | > 100 µM (inactive) | > 100 µM (inactive) | – | > 100 µM (inactive) | > 100 µM (inactive) |
| CO/N=C/c1cc(OC)c(OC)c(OC)c1 | > 100 µM (inactive) | > 100 µM (inactive) | > 100 µM (inactive) | > 100 µM (inactive) | > 100 µM (inactive) | > 100 µM (inactive) | > 100 µM (inactive) | > 100 µM (inactive) | > 100 µM (inactive) |
| COc1cc(OC)cc(N2CCC(c3c(N)nc(N)nc3Cl)CC2)c1 | – | > 100 µM (inactive) | 37.8 µM (inactive) | – | 26.3 µM (inactive) | 75.7 µM (inactive) | > 100 µM (inactive) | > 100 µM (inactive) | > 100 µM (inactive) |
| C=CC1[C@H]2COC(C)(C)O[C@@H]2CC(=O)C1(C)C (stereo partly drawn) | > 100 µM (inactive) | > 100 µM (inactive) | > 100 µM (inactive) | > 100 µM (inactive) | > 100 µM (inactive) | > 100 µM (inactive) | – | > 100 µM (inactive) | > 100 µM (inactive) |
| COc1ccc(-c2cc(O)c3cc4c(cc3n2)OCO4)cc1 | – | > 100 µM (inactive) | > 100 µM (inactive) | > 100 µM (inactive) | > 100 µM (inactive) | > 100 µM (inactive) | – | > 100 µM (inactive) | > 100 µM (inactive) |
| CCNC(=O)OCc1c(COC(=O)NCC)c(-c2ccc(Cl)c(Cl)c2)n2c1CCC2 | – | 23.3 µM (inactive) | 15.3 µM (inactive) | 9.02 µM (inactive) | 16.1 µM (inactive) | 11.8 µM (inactive) | – | 9.48 µM (inactive) | 16.9 µM (inactive) |
| C[C@@H]1C[C@H]2[C@@H]3CCC4=CC(=O)C=C[C@]4(C)[C@@]3(F)[C@@H](O)C[C@]2(C)[C@@]1(O)C(=O)CO [DEXAMETHASONE] | – | > 100 µM (inactive) | > 100 µM (inactive) | 95.9 µM (inactive) | – | > 100 µM (inactive) | – | – | > 100 µM (inactive) |
| NC1=NC(c2ccccc2)CC(c2cc(Cl)ccc2O)=N1 (stereo not drawn) | 17.7 µM (inactive) | 14.5 µM (inactive) | 15 µM (inactive) | 12.7 µM (inactive) | 19.6 µM (inactive) | 13.2 µM (inactive) | – | 13 µM (inactive) | 17.4 µM (inactive) |
| Cc1cc2c(=O)c3ccccc3[nH]c2c(C(N)=O)c1C | > 100 µM (inactive) | > 100 µM (inactive) | > 100 µM (inactive) | > 100 µM (inactive) | > 100 µM (inactive) | > 100 µM (inactive) | > 100 µM (inactive) | – | > 100 µM (inactive) |
| CCOC(=O)[C@H](Cc1ccccc1)NC(=O)c1nc[nH]c1[N+](=O)[O-] | – | > 100 µM (inactive) | > 100 µM (inactive) | > 100 µM (inactive) | – | > 100 µM (inactive) | – | > 100 µM (inactive) | – |
| CC(N)Cc1ccc(F)cc1 (stereo not drawn) | > 100 µM (inactive) | – | > 100 µM (inactive) | > 100 µM (inactive) | – | > 100 µM (inactive) | > 100 µM (inactive) | > 100 µM (inactive) | > 100 µM (inactive) |
| Cc1ccc(C2=Nc3ccccc3NC(=O)C2)cc1 | > 100 µM (inactive) | > 100 µM (inactive) | > 100 µM (inactive) | 91.2 µM (inactive) | 35.9 µM (inactive) | > 100 µM (inactive) | – | > 100 µM (inactive) | > 100 µM (inactive) |
| CC[C@@]1(O)C(=O)OCc2c1cc1n(c2=O)Cc2cc3cc(OC)ccc3nc2-1 | – | 0.0537 µM (active) | 0.144 µM (active) | 0.01 µM (active) | – | – | – | 0.01 µM (active) | 0.0604 µM (active) |
| COC(=O)C(Cc1nc2ccccc2nc1O)/C(=N\NC(C)(C)C)C(=O)Nc1c(C)cc(Br)cc1C (stereo not drawn) | – | 45.1 µM (inactive) | 21.1 µM (inactive) | 24.7 µM (inactive) | – | 22.2 µM (inactive) | – | – | – |
| CCOC(=O)CP(=S)(S)c1ccccc1 (stereo not drawn) | – | > 100 µM (inactive) | > 100 µM (inactive) | > 100 µM (inactive) | 45.2 µM (inactive) | > 100 µM (inactive) | – | > 100 µM (inactive) | > 100 µM (inactive) |
| O=C1N=C2N=C(c3ccc(Cl)cc3)N(c3ccc(Cl)cc3)N2Sc2ccccc21 | > 100 µM (inactive) | > 100 µM (inactive) | > 100 µM (inactive) | > 100 µM (inactive) | 40.9 µM (inactive) | > 100 µM (inactive) | – | 67.1 µM (inactive) | > 100 µM (inactive) |
| C=C1C(=O)O[C@H]2C[C@@H](C)[C@@H]3CC(=O)OC[C@@]3(C)CC12 (stereo partly drawn) | 36.5 µM (inactive) | 34.5 µM (inactive) | – | – | – | 23.4 µM (inactive) | – | 28.6 µM (inactive) | 18.5 µM (inactive) |
| COc1ccc(/C=C2\Cc3ccccc3C2=O)cc1OC | – | > 100 µM (inactive) | 75 µM (inactive) | 48.6 µM (inactive) | > 100 µM (inactive) | > 100 µM (inactive) | – | – | > 100 µM (inactive) |
| CCOC(=O)c1c(C)c(C)n2c1NC(=O)C2 | > 100 µM (inactive) | > 100 µM (inactive) | > 100 µM (inactive) | > 100 µM (inactive) | 0.073 µM (active) | > 100 µM (inactive) | > 100 µM (inactive) | > 100 µM (inactive) | > 100 µM (inactive) |
| CC(C)=CCC/C(C)=C/CC/C(C)=C/CCC1(C)CCC([C@H](C)C(=O)O)OO1.CC1=C(CC/C(C)=C/CCC2(C)CCC([C@H](C)C(=O)O)OO2)C(C)(C)CCC1 (stereo partly drawn) | – | > 100 µM (inactive) | > 100 µM (inactive) | > 100 µM (inactive) | – | > 100 µM (inactive) | – | > 100 µM (inactive) | > 100 µM (inactive) |

— ChEMBL document CHEMBL1201862, “PubChem BioAssay data set” (2004)
